Experimental data taken from ChEMBL document CHEMBL3853261 (Medchemcomm, 2016).
In brackets after ≈: the same amount, converted by molar mass. Activity calls are given as the source filed them. The rule behind the calls is not given here.

What was measured:
[1] = tested on: Mycobacterium tuberculosis; test: Antibacterial activity against Mycobacterium tuberculosis MTCC 300 after 7 days by resazurin microtiter assay; assay type: functional; conditions: for MIC: MTCC 300, 168 h
[2] = Hemolytic activity in human erythrocytes after 1 hr; assay type: ADME, cell-based, Erythrocyte; conditions: read-out: Activity

For `NC(=S)N/N=C1\CSC(n2nc(-c3cn(-c4ccccc4)nc3-c3cccc([N+](=O)[O-])c3)c(O)c2-c2ccc(Cl)cc2)=N1`, the MIC [1] was 62.5 µg/mL (≈ 99.2 µM) and the hemolysis at 1 h [2] was < 5%.

Work on `CO[C@H]1/C=C/O[C@@]2(C)Oc3c(C)c(O)c4c(O)c(c(/C=N/N5CCN(C)CC5)c(O)c4c3C2=O)NC(=O)/C(C)=C\C=C\[C@H](C)[C@H](O)[C@@H](C)[C@@H](O)[C@@H](C)[C@H](OC(C)=O)[C@@H]1C` [RIFAMPIN] yielded an MIC [1] of 0.24 µg/mL (≈ 0.292 µM).

With `NC(=S)N/N=C1\CSC(n2nc(-c3cn(-c4ccccc4)nc3-c3ccc(Cl)cc3)c(O)c2-c2ccc(F)cc2)=N1` the “growth inhibition (GI)” value [1] was “Active” and the hemolysis at 1 h [2] was < 5%.

In the case of `NC(=S)N/N=C1\CSC(n2nc(-c3cn(-c4ccccc4)nc3-c3ccc(Br)cc3)c(O)c2-c2cccc([N+](=O)[O-])c2)=N1`, the hemolysis at 1 h [2] was < 5%.

For `NC(=S)N/N=C1\CSC(n2nc(-c3cn(-c4ccccc4)nc3-c3cccc([N+](=O)[O-])c3)c(O)c2-c2cccc([N+](=O)[O-])c2)=N1`, the MIC [1] was 3.9 µg/mL (≈ 6.09 µM) and the hemolysis at 1 h [2] was < 5%.

For `NC(=S)N/N=C1\CSC(n2nc(-c3cn(-c4ccccc4)nc3-c3ccc(Br)cc3)c(O)c2-c2ccc([N+](=O)[O-])cc2)=N1`, the hemolysis at 1 h [2] was < 5%.

With `NC(=S)N/N=C1\CSC(n2nc(-c3cn(-c4ccccc4)nc3-c3ccc([N+](=O)[O-])cc3)c(O)c2-c2ccc(Cl)cc2)=N1` the “growth inhibition (GI)” value [1] was “Active” and the hemolysis at 1 h [2] was < 5%.

With `NC(=S)N/N=C1\CSC(n2nc(-c3cn(-c4ccccc4)nc3-c3ccc([N+](=O)[O-])cc3)c(O)c2-c2ccc(F)cc2)=N1` the “growth inhibition (GI)” value [1] was “Active” and the hemolysis at 1 h [2] was < 5%.

For `NC(=S)N/N=C1\CSC(n2nc(-c3cn(-c4ccccc4)nc3-c3ccc(Cl)cc3)c(O)c2-c2ccc(Cl)cc2)=N1`, the MIC [1] was 62.5 µg/mL (≈ 101 µM) and the hemolysis at 1 h [2] was < 5%.

With `NC(=S)N/N=C1\CSC(n2nc(-c3cn(-c4ccccc4)nc3-c3ccc([N+](=O)[O-])cc3)c(O)c2-c2cccc([N+](=O)[O-])c2)=N1` the MIC [1] was 7.81 µg/mL (≈ 12.2 µM) and the hemolysis at 1 h [2] was < 5%.

For `NC(=S)N/N=C1\CSC(n2nc(-c3cn(-c4ccccc4)nc3-c3ccc(Br)cc3)c(O)c2-c2ccc(Cl)cc2)=N1`, the hemolysis at 1 h [2] was < 5%.

In the case of `NC(=S)N/N=C1\CSC(n2nc(-c3cn(-c4ccccc4)nc3-c3cccc([N+](=O)[O-])c3)c(O)c2-c2ccc(F)cc2)=N1`, the hemolysis at 1 h [2] was < 5%.

In the case of `NNC(=O)c1ccncc1` [ISONIAZID], the MIC [1] was 0.48 µg/mL (≈ 3.5 µM).

For `NC(=S)N/N=C1\CSC(n2nc(-c3cn(-c4ccccc4)nc3-c3ccc(Br)cc3)c(O)c2-c2ccc(Br)cc2)=N1`, the hemolysis at 1 h [2] was < 5%.

In the case of `NC(=S)N/N=C1\CSC(n2nc(-c3cn(-c4ccccc4)nc3-c3ccc(Cl)cc3)c(O)c2-c2ccc([N+](=O)[O-])cc2)=N1`, the “growth inhibition (GI)” value [1] was “Active” and the hemolysis at 1 h [2] was < 5%.

With `NC(=S)N/N=C1\CSC(n2nc(-c3cn(-c4ccccc4)nc3-c3ccc(Br)cc3)c(O)c2-c2ccc(F)cc2)=N1` the hemolysis at 1 h [2] was < 5%.

For `NC(=S)N/N=C1\CSC(n2nc(-c3cn(-c4ccccc4)nc3-c3ccc(Cl)cc3)c(O)c2-c2ccccc2)=N1`, the “growth inhibition (GI)” value [1] was “Active” and the hemolysis at 1 h [2] was < 5%.

In the case of `NC(=S)N/N=C1\CSC(n2nc(-c3cn(-c4ccccc4)nc3-c3ccccc3)c(O)c2-c2ccccc2)=N1`, the “growth inhibition (GI)” value [1] was “Active” and the hemolysis at 1 h [2] was < 5%.

In the case of `NC(=S)N/N=C1\CSC(n2nc(-c3cn(-c4ccccc4)nc3-c3cccc([N+](=O)[O-])c3)c(O)c2-c2ccc([N+](=O)[O-])cc2)=N1`, the MIC [1] was 3.9 µg/mL (≈ 6.09 µM) and the hemolysis at 1 h [2] was < 5%.

For `NC(=S)N/N=C1\CSC(n2nc(-c3cn(-c4ccccc4)nc3-c3ccc([N+](=O)[O-])cc3)c(O)c2-c2ccc([N+](=O)[O-])cc2)=N1`, the MIC [1] was 62.5 µg/mL (≈ 97.6 µM) and the hemolysis at 1 h [2] was < 5%.
